From ChEMBL document CHEMBL4251595, “Green approach for the synthesis of thiophenyl pyrazoles and isoxazoles by adopting 1,3-dipolar cycloaddition methodology and their antimicrobial activity” (2018)
Converted amounts (≈) assume the structure as drawn.

Key:
Type in all cases: functional
Staphylococcus aureus [1] = test: Antimicrobial activity against Staphylococcus aureus assessed as zone of inhibition at 50 ug/well after 24 hrs by agar well diffusion method; details: read-out: DIZ
Staphylococcus aureus [2] = test: Antimicrobial activity against Staphylococcus aureus assessed as zone of inhibition at 75 ug/well after 24 hrs by agar well diffusion method; details: read-out: DIZ
Staphylococcus aureus [3] = test: Antimicrobial activity against Staphylococcus aureus assessed as zone of inhibition at 100 ug/well after 24 hrs by agar well diffusion method; details: read-out: DIZ
Bacillus subtilis [4] = test: Antimicrobial activity against Bacillus subtilis assessed as zone of inhibition at 50 ug/well after 24 hrs by agar well diffusion method; details: read-out: DIZ
Bacillus subtilis [5] = test: Antimicrobial activity against Bacillus subtilis assessed as zone of inhibition at 75 ug/well after 24 hrs by agar well diffusion method; details: read-out: DIZ
Bacillus subtilis [6] = test: Antimicrobial activity against Bacillus subtilis assessed as zone of inhibition at 100 ug/well after 24 hrs by agar well diffusion method; details: read-out: DIZ
Pseudomonas aeruginosa [7] = test: Antimicrobial activity against Pseudomonas aeruginosa assessed as zone of inhibition at 50 ug/well after 24 hrs by agar well diffusion method; details: read-out: DIZ
Pseudomonas aeruginosa [8] = test: Antimicrobial activity against Pseudomonas aeruginosa assessed as zone of inhibition at 75 ug/well after 24 hrs by agar well diffusion method; details: read-out: DIZ
Pseudomonas aeruginosa [9] = test: Antimicrobial activity against Pseudomonas aeruginosa assessed as zone of inhibition at 100 ug/well after 24 hrs by agar well diffusion method; details: read-out: DIZ
Klebsiella pneumoniae [10] = test: Antimicrobial activity against Klebsiella pneumoniae assessed as zone of inhibition at 50 ug/well after 24 hrs by agar well diffusion method; details: read-out: DIZ
Klebsiella pneumoniae [11] = test: Antimicrobial activity against Klebsiella pneumoniae assessed as zone of inhibition at 75 ug/well after 24 hrs by agar well diffusion method; details: read-out: DIZ
Klebsiella pneumoniae [12] = test: Antimicrobial activity against Klebsiella pneumoniae assessed as zone of inhibition at 100 ug/well after 24 hrs by agar well diffusion method; details: read-out: DIZ
Aspergillus niger [13] = test: Antifungal activity against Aspergillus niger assessed as zone of inhibition at 50 ug/well after 48 hrs by agar well diffusion method; details: read-out: DIZ
Aspergillus niger [14] = test: Antifungal activity against Aspergillus niger assessed as zone of inhibition at 75 ug/well after 48 hrs by agar well diffusion method; details: read-out: DIZ
Aspergillus niger [15] = test: Antifungal activity against Aspergillus niger assessed as zone of inhibition at 100 ug/well after 48 hrs by agar well diffusion method; details: read-out: DIZ
Penicillium chrysogenum [16] = test: Antifungal activity against Penicillium chrysogenum assessed as zone of inhibition at 50 ug/well after 48 hrs by agar well diffusion method; details: read-out: DIZ
Penicillium chrysogenum [17] = test: Antifungal activity against Penicillium chrysogenum assessed as zone of inhibition at 75 ug/well after 48 hrs by agar well diffusion method; details: read-out: DIZ
Penicillium chrysogenum [18] = test: Antifungal activity against Penicillium chrysogenum assessed as zone of inhibition at 100 ug/well after 48 hrs by agar well diffusion method; details: read-out: DIZ
Staphylococcus aureus [19] = test: Antimicrobial activity against Staphylococcus aureus after 24 hrs by broth dilution test
Bacillus subtilis [20] = test: Antimicrobial activity against Bacillus subtilis after 24 hrs by broth dilution test
Pseudomonas aeruginosa [21] = test: Antimicrobial activity against Pseudomonas aeruginosa after 24 hrs by broth dilution test
Klebsiella pneumoniae [22] = test: Antimicrobial activity against Klebsiella pneumoniae after 24 hrs by broth dilution test
Aspergillus niger [23] = test: Antifungal activity against Aspergillus niger after 48 hrs by broth dilution test
Penicillium chrysogenum [24] = test: Antifungal activity against Penicillium chrysogenum after 48 hrs by broth dilution test
Staphylococcus aureus [25] = test: Bactericidal activity against Staphylococcus aureus incubated for 24 hrs followed by replating on sterile nutrient broth and incubated for 24 hrs by broth dilution test
Bacillus subtilis [26] = test: Bactericidal activity against Bacillus subtilis incubated for 24 hrs followed by replating on sterile nutrient broth and incubated for 24 hrs by broth dilution test
Pseudomonas aeruginosa [27] = test: Bactericidal activity against Pseudomonas aeruginosa incubated for 24 hrs followed by replating on sterile nutrient broth and incubated for 24 hrs by broth dilution test
Klebsiella pneumoniae [28] = test: Bactericidal activity against Klebsiella pneumoniae incubated for 24 hrs followed by replating on sterile nutrient broth and incubated for 24 hrs by broth dilution test
Aspergillus niger [29] = test: Fungicidal activity against Aspergillus niger incubated for 48 hrs followed by replating on PDA and incubated for 48 hrs by broth dilution test
Penicillium chrysogenum [30] = test: Fungicidal activity against Penicillium chrysogenum incubated for 48 hrs followed by replating on PDA and incubated for 48 hrs by broth dilution test

Row | MIC (Aspergillus niger [23]) | MIC (Penicillium chrysogenum [24]) | SMILES | zone of inhibition at 50 µg/disc (Staphylococcus aureus [1]) | zone of inhibition at 75 µg/disc (Staphylococcus aureus [2]) | zone of inhibition at 100 µg/disc (Staphylococcus aureus [3]) | zone of inhibition at 50 µg/disc (Bacillus subtilis [4]) | zone of inhibition at 75 µg/disc (Bacillus subtilis [5]) | zone of inhibition at 100 µg/disc (Bacillus subtilis [6]) | zone of inhibition at 50 µg/disc (Pseudomonas aeruginosa [7]) | zone of inhibition at 75 µg/disc (Pseudomonas aeruginosa [8]) | zone of inhibition at 100 µg/disc (Pseudomonas aeruginosa [9]) | zone of inhibition at 50 µg/disc (Klebsiella pneumoniae [10]) | zone of inhibition at 75 µg/disc (Klebsiella pneumoniae [11]) | zone of inhibition at 100 µg/disc (Klebsiella pneumoniae [12]) | zone of inhibition at 50 µg/disc (Aspergillus niger [13]) | zone of inhibition at 75 µg/disc (Aspergillus niger [14]) | zone of inhibition at 100 µg/disc (Aspergillus niger [15]) | zone of inhibition at 50 µg/disc (Penicillium chrysogenum [16]) | zone of inhibition at 75 µg/disc (Penicillium chrysogenum [17]) | zone of inhibition at 100 µg/disc (Penicillium chrysogenum [18]) | further results
1 | 12.5 µg/mL (≈ 22.1 µM) | 50 µg/mL (≈ 88.5 µM) | O=C(NS(=O)(=O)c1c(-c2ccccc2)nn(-c2ccccc2)c1-c1ccc([N+](=O)[O-])cc1)c1ccc(Cl)s1 | 24 mm | 28 mm | 29 mm | 35 mm | 38 mm | 41 mm | 22 mm | 23 mm | 26 mm | 30 mm | 33 mm | 37 mm | 29 mm | 31 mm | 34 mm | 24 mm | 25 mm | 29 mm | MIC (Staphylococcus aureus [19]): 50 µg/mL (≈ 88.5 µM); MIC (Bacillus subtilis [20]): 6.25 µg/mL (≈ 11.1 µM); MIC (Pseudomonas aeruginosa [21]): 12.5 µg/mL (≈ 22.1 µM); MIC (Klebsiella pneumoniae [22]): 25 µg/mL (≈ 44.2 µM); MBC (Staphylococcus aureus [25]): 200 µg/mL (≈ 354 µM); MBC (Bacillus subtilis [26]): 12.5 µg/mL (≈ 22.1 µM); MBC (Pseudomonas aeruginosa [27]): 50 µg/mL (≈ 88.5 µM); MBC (Klebsiella pneumoniae [28]): 100 µg/mL (≈ 177 µM); MFC (Aspergillus niger [29]): 50 µg/mL (≈ 88.5 µM); MFC (Penicillium chrysogenum [30]): 200 µg/mL (≈ 354 µM)
2 | 25 µg/mL (≈ 47.1 µM) | 100 µg/mL (≈ 188 µM) | O=C(NS(=O)(=O)c1c(-c2ccccc2)nn(-c2ccccc2)c1-c1ccc([N+](=O)[O-])cc1)c1cccs1 | 23 mm | 26 mm | 27 mm | 33 mm | 36 mm | 40 mm | 20 mm | 21 mm | 24 mm | 29 mm | 32 mm | 34 mm | 25 mm | 28 mm | 31 mm | 22 mm | 24 mm | 27 mm | MIC (Staphylococcus aureus [19]): 50 µg/mL (≈ 94.2 µM); MIC (Bacillus subtilis [20]): 6.25 µg/mL (≈ 11.8 µM); MIC (Pseudomonas aeruginosa [21]): 25 µg/mL (≈ 47.1 µM); MIC (Klebsiella pneumoniae [22]): 25 µg/mL (≈ 47.1 µM); MBC (Staphylococcus aureus [25]): 200 µg/mL (≈ 377 µM); MBC (Bacillus subtilis [26]): 12.5 µg/mL (≈ 23.6 µM); MBC (Pseudomonas aeruginosa [27]): 100 µg/mL (≈ 188 µM); MBC (Klebsiella pneumoniae [28]): 100 µg/mL (≈ 188 µM); MFC (Aspergillus niger [29]): 100 µg/mL (≈ 188 µM); MFC (Penicillium chrysogenum [30]): > 200 µg/mL
3 | 6.25 µg/mL (≈ 13.7 µM) | 50 µg/mL (≈ 110 µM) | O=C(NS(=O)(=O)c1c(-c2ccccc2)noc1-c1ccc([N+](=O)[O-])cc1)c1cccs1 | 25 mm | 28 mm | 30 mm | 34 mm | 38 mm | 42 mm | 21 mm | 23 mm | 26 mm | 31 mm | 34 mm | 36 mm | 33 mm | 35 mm | 38 mm | 25 mm | 28 mm | 30 mm | MIC (Staphylococcus aureus [19]): 50 µg/mL (≈ 110 µM); MIC (Bacillus subtilis [20]): 6.25 µg/mL (≈ 13.7 µM); MIC (Pseudomonas aeruginosa [21]): 12.5 µg/mL (≈ 27.4 µM); MIC (Klebsiella pneumoniae [22]): 25 µg/mL (≈ 54.9 µM); MBC (Staphylococcus aureus [25]): 200 µg/mL (≈ 439 µM); MBC (Bacillus subtilis [26]): 12.5 µg/mL (≈ 27.4 µM); MBC (Pseudomonas aeruginosa [27]): 50 µg/mL (≈ 110 µM); MBC (Klebsiella pneumoniae [28]): 100 µg/mL (≈ 220 µM); MFC (Aspergillus niger [29]): 12.5 µg/mL (≈ 27.4 µM); MFC (Penicillium chrysogenum [30]): 200 µg/mL (≈ 439 µM)

Row | SMILES | MIC (Aspergillus niger [23]) | MIC (Penicillium chrysogenum [24]) | zone of inhibition at 50 µg/disc (Staphylococcus aureus [1]) | zone of inhibition at 75 µg/disc (Staphylococcus aureus [2]) | zone of inhibition at 100 µg/disc (Staphylococcus aureus [3]) | zone of inhibition at 50 µg/disc (Bacillus subtilis [4]) | zone of inhibition at 75 µg/disc (Bacillus subtilis [5]) | zone of inhibition at 100 µg/disc (Bacillus subtilis [6]) | zone of inhibition at 50 µg/disc (Pseudomonas aeruginosa [7]) | zone of inhibition at 75 µg/disc (Pseudomonas aeruginosa [8]) | zone of inhibition at 100 µg/disc (Pseudomonas aeruginosa [9]) | zone of inhibition at 50 µg/disc (Klebsiella pneumoniae [10]) | zone of inhibition at 75 µg/disc (Klebsiella pneumoniae [11]) | zone of inhibition at 100 µg/disc (Klebsiella pneumoniae [12]) | zone of inhibition at 50 µg/disc (Aspergillus niger [13]) | zone of inhibition at 75 µg/disc (Aspergillus niger [14]) | zone of inhibition at 100 µg/disc (Aspergillus niger [15]) | zone of inhibition at 50 µg/disc (Penicillium chrysogenum [16]) | zone of inhibition at 75 µg/disc (Penicillium chrysogenum [17]) | zone of inhibition at 100 µg/disc (Penicillium chrysogenum [18]) | further results
4 | CC(=O)N1CCN(c2ccc(OCC3COC(Cn4ccnc4)(c4ccc(Cl)cc4Cl)O3)cc2)CC1 (stereo not drawn) [KETOCONAZOLE] | 6.25 µg/mL (≈ 11.8 µM) | 12.5 µg/mL (≈ 23.5 µM) | – | – | – | – | – | – | – | – | – | – | – | – | 31 mm | 33 mm | 36 mm | 35 mm | 36 mm | 38 mm | –
